Publication PMC3679140, “Synthesis of Indole Derived Protease-Activated Receptor 4 Antagonists and Characterization in Human Platelets” (PLoS ONE, 2013)

Legend:
[1] = system: thrombin mediated platelet GPIIbIIIa activation; experiment: Flow cytometry: thrombin mediated GPIIbIIIa activation in washed platelets; type: cell-based, human; details: for Addition of the effect of RWJ-56110 on thrombin and the effect of the compound on PAR1-AP: sum of separate inhibitory effects, 1 µM compound, 10 µM RWJ-56110
Protocol: (§1) Briefly, 60 µL of washed platelets at a concentration of 1.5×10^7 platelets/mL were added to polystyrene tubes. Anti-CD62P antibody or PAC-1 antibody were diluted (per manufacturer protocol) in Tyrode’s buffer containing 0.1% BSA. 40 µL of diluted antibody was added to the platelets and allowed to bind for 5 minutes. Platelets were pre-treated with indicated concentrations of antagonist or DMSO control for 5 minutes followed by addition of PAR1-AP or PAR4-AP for 10 minutes. Platelet activity was quenched by the addition ice cold 1.5% paraformaldehyde followed by dilution in 1X phosphate buffered saline. The final DMSO concentration was 0.5%. Platelets were stored up to 18 hours at 4°C before flow cytometric analysis. Analysis was carried out on a BD FACS Canto II (Franklin Lakes, NJ). Fluorescent intensity was determined for 100,000 events within the platelet gate. Data was collected and analyzed via FACS DiVa software.
(§2) 100% max response was determined for each individual as the DMSO treated control stimulated with either 200 µM PAR4-AP, 20 µM PAR1-AP, or 10 nM thrombin. Samples treated with antagonist were normalized as a percentage of the DMSO treated control. Normalized data was plotted in GraphPad PRISM v.5.0. Dose response curves and subsequent IC50 values were generated using the ‘log(inhibitor) vs. response variable slope’ parameter. Data plotted is mean±S.E.M. or mean±S.D.

PAR4 [2] = biological target: T1, PAR4 (Homo sapiens, UniProt Q96RI0); experiment: Flow cytometry: PAR4-AP mediated GPIIbIIIa activation (PAC-1 binding) in washed platelets; type: cell-based; details: for IC50: 200 µM PAR4-AP, compound 5 min before, normalized to DMSO control, Figure 4; for Extent of antagonism of PAR4 mediated platelet response / GPIIbIIIa activation: maximal (200 µM) PAR4-AP, up to 10 µM compound
T1 construct: Human platelets express both PAR1 and PAR4; endogenous in cells; host or cells: washed human platelets from volunteer donors
T1 sequence (Q96RI0 18-385): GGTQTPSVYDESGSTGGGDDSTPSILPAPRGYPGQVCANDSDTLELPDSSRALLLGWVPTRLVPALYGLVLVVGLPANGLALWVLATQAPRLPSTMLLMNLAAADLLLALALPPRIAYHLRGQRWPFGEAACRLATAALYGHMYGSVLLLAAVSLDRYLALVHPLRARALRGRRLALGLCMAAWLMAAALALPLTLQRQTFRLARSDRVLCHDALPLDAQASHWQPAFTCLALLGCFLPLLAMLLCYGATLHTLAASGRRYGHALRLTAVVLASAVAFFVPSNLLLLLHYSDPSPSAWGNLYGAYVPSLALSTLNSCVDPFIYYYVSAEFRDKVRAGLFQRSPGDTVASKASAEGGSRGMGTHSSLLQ
Protocol: as §1, with “Platelet activity was quenched by the addition ice cold 1.5% paraformaldehyde followed by dilution in 1X phosphate buffered saline.” left out
as §2

PAR4 [3] = biological target: T1, PAR4; experiment: PAR4-AP mediated platelet aggregation (light transmittance); type: cell-based; details: 200 µM PAR4-AP; compound 10 min before; Figure 6
Protocol: (§3) Briefly, washed human platelets were prepared to a final concentration of 2.0×10^8 platelets/mL in Tyrode’s buffer containing 0.1% BSA. Compounds or DMSO control were added 10 minutes prior to stimulation with either PAR1-AP or PAR4-AP. The final DMSO concentration was 0.1%. Light transmittance was recorded by a Chrono-Log Model 700 Aggregometer.
(§4) The percent of light transmitted as reported by the aggregometer was recorded in GraphPad PRISM v.5.0. 100% light transmission signifies full platelet aggregation.

PAR1 [4] = biological target: T2, PAR1 (Homo sapiens, UniProt P25116); experiment: Flow cytometry: PAR1-AP mediated GPIIbIIIa activation (PAC-1 binding) in washed platelets; type: cell-based; details: 20 µM PAR1-AP
T2 construct: Human platelets express both PAR1 and PAR4; endogenous in cells; host or cells: washed human platelets from volunteer donors
T2 sequence (P25116 22-425): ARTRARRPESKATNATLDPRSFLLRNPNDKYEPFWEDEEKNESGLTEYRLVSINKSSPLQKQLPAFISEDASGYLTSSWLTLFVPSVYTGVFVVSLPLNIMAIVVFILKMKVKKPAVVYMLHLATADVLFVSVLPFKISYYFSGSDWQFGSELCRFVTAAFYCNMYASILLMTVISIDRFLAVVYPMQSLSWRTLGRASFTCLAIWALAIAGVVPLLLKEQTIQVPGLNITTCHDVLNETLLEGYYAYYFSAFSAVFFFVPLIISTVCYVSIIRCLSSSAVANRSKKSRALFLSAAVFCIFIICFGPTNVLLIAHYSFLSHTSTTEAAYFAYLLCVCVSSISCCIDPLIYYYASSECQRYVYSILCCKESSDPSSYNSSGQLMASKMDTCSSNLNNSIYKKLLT
Protocol: as §1, with “Platelet activity was quenched by the addition ice cold 1.5% paraformaldehyde followed by dilution in 1X phosphate buffered saline.” left out
as §2

PAR4 [5] = biological target: T1, PAR4; experiment: High-throughput platelet calcium mobilization assay (PAR4-AP stimulated); type: cell-based; details: for Emax at 10 µM: 10 µM compound 6 min prior to 80 µM PAR4-AP, Figure 2D, read-out: PAR4 mediated platelet calcium mobilization, percent of the maximum response
Protocol: Washed human platelets were prepared via standard procedure and suspended in Tyrode’s buffer containing 0.1% BSA. Platelets were dye loaded for 1 hour with Fluo4-AM in calcium assay buffer (1X HBSS without calcium or magnesium, 20 mM HEPES, 2.5 mM probenecid, 1 mM EGTA, 0.1% BSA). The calcium assay buffer containing dye is mixed with platelets to yield a final concentration of 2.5 µg/mL Fluo4-AM and 1.0×10^8 platelets/mL. 60 µL of dye loaded platelets were added to each well of a NUNC 384 well plate black optical bottom plate (Thermo, Rochester, NY). Fluorescence measurements were recorded on a Functional Drug Screening System (FDSS) 6000, Hamamatsu (Hamamatsu, Japan) at 37°C. […] Compounds were injected by the FDSS and occurred simultaneously across each plate. Experiments reported were performed in triplicate, on the same plate, from the indicated number of donors. 480∶540 (ex:em) was measured each second for a total of 12 minutes. The final concentration of DMSO in the assay was 0.5%.
The difference between basal (defined as t0) and maximal relative fluorescence unit (RFU) values (ΔRFUs) for ex:em 480∶540 was determined for each well. The triplicate ΔRFU for DMSO treated control wells stimulated with 80 µM PAR4-AP was averaged and the average value ΔC was set to 100% max response for each plate. Each well was subsequently normalized as a percent of the ΔC control (value/ΔC×100). Normalized data was plotted in GraphPad PRISM v.5.0.

PAR1 [6] = biological target: T2, PAR1; experiment: PAR1-AP mediated platelet aggregation (light transmittance); type: cell-based; details: 20 µM PAR1-AP; compound 10 min before; Figure 6
Protocol: as §3, §4

PAR4 [7] = biological target: T1, PAR4; experiment: Flow cytometry: PAR4-AP mediated P-selectin expression (anti-CD62P binding) in washed platelets; type: cell-based
Protocol: as §1, with “Platelet activity was quenched by the addition ice cold 1.5% paraformaldehyde followed by dilution in 1X phosphate buffered saline.” left out
as §2

PAR4 [8] = biological target: T1, PAR4; design: method as in PMID 12083482; details: cited from earlier work
[9] = 1 µM compound + 10 µM RWJ-56110, 10 nM thrombin

| Compound | IC50 (PAR4 [2]) [nM] | Extent of antagonism of PAR4 mediated platelet response / GPIIbIIIa activation (PAR4 [2]) | Inhibition of PAR4 mediated platelet aggregation (PAR4 [3]) | Emax at 10 µM (PAR4 [5]) [%] | Reduction of thrombin mediated GPIIbIIIa activation in combination with RWJ-56110 [1, 9] [%] | Addition of the effect of RWJ-56110 on thrombin and the effect of the compound on PAR1-AP [1] [%] | also measured |
| --- | --- | --- | --- | --- | --- | --- | --- |
| NCC[C@H](NC(=O)[C@H](Cc1ccc(F)c(F)c1)NC(=O)Nc1ccc2c(CN3CCCC3)cn(Cc3c(Cl)cccc3Cl)c2c1)C(=O)NCc1ccccc1 [RWJ-56110, reference compound] |  |  |  |  |  |  | Inhibition of thrombin mediated GPIIbIIIa activation, compound alone ([1]; 10 µM RWJ-56110 alone, 10 nM thrombin): 18.4±5.4% |
| CCOC(=O)c1ccc(-c2cn(Cc3ccccn3)c3ccccc23)cc1 [Compound 3] | 1000 ± 1100 | fully antagonize | non-significantly | < 50 |  |  | Reduction of PAR1 mediated GPIIbIIIa activation (PAR1 [4]; 3.16 µM compound): 7.2±1.3%; Reduction of thrombin mediated GPIIbIIIa activation in combination with RWJ-56110 ([1]; 3.16 µM compound + 10 µM RWJ-56110, 10 nM thrombin): 14±2% |
| CCOC(=O)c1ccc(-c2cn(Cc3ccccc3)c3ncccc23)cc1 [Compound 5] | 170 ± 1 | fully antagonize | significantly inhibit PAR4 | < 50 | 17±2 |  | Reduction of PAR1 mediated GPIIbIIIa activation (PAR1 [4]; 1 µM compound): 7.2±1.4%; Inhibition of PAR1 mediated platelet aggregation (PAR1 [6]): not PAR1 mediated platelet aggregation |
| CCOC(=O)c1ccc(-c2cn(Cc3ccccc3)c3ccccc23)cc1 [Compound 1] |  |  |  |  | 37.1±6.4 | 32.5±6.1 |  |
| CCOC(=O)c1ccc(-c2nn(Cc3ccccc3)c3ccccc23)cc1 [YD-3, ethyl 4-(1-benzyl-1H-indazol-3-yl)benzoate, reference compound] | 26 ± 1 |  |  |  | 42.9±9.7 | 26.8±6.0 | IC50 (PAR4 [7]; 200 µM PAR4-AP, from raw mean fluorescent intensity values, Figure S4): 16.4 ± 1.1 nM; Mechanism of action against PAR4 (shift of PAR4-AP concentration response curve) (PAR4 [7]; P-selectin expression, twelve point PAR4-AP CRCs with increasing antagonist, Figure 7): competitive mechanism of action; Mechanism of action against PAR4 by platelet aggregation (PAR4 [8]): competitive in nature; Inhibition time course of PAR4-AP calcium mobilization (PAR4 [5]; 10 µM YD-3, increasing treatment times, then 80 µM PAR4-AP, Figure 2B): significant inhibition by YD-3 occurred as early as 1 minute |
